The values that follow are results of earlier work, collected in patent publication US12240810B2, “Chiral-substituted poly-N-vinylpyrrolidinones and complexes with bimetallic nanoclusters and uses thereof in asymmetric oxidation reactions” (Kansas State University Research Foundation, priority 2019, dated 2025).

This data set deals with Staphylococcus aureus. As to conditions: antibacterial activity, background statement on the natural product.

Values after ≈ are worked out from the molar mass of the structure shown.

Consider `CC=CCCCC[C@@]1(O)[C@H](C)C(=O)N2CCC[C@@]21CO` [compound 113, (−)-Penibruguieramine A], for which the MIC value was 6.4 µg/mL (≈ 22.7 µM).
